Data taken from US6469146B1, “Radiopharmaceutical products suitable for the selective labeling of lymphocytes, and their preparation” (Cis Bio International, priority 2000, dated 2002).

Key:
human blood = assay: Labeling of blood cells: yield of cell labeling in whole blood; type: cell-based; details: 2 mCi (74 MBq) in 3 mL fresh human blood, 10 minutes, after washings
Experimental: (§1) The radiopharmaceuticals of table I (2 mCi; 74 MBq) are incubated in 3 mL of a fresh sample of human blood for 10 minutes under slow shaking. The blood composition depends upon each sample taken from healthy volunteers (average composition: 1.6±0.3.10^10 Red Globules (RG) and 2.2±0.3.10^7 White Globules (WG) with 1.2±0.3.10^7 Polymorphs (57±9%) and 0.7±0.3.10^7 Lymphocytes (35±4%)]. Non-bound radioactivity is removed by successive washings (2×10 mL of RPMI culture medium 1640) of 10 minutes at 600 g. The yield of cell labeling is determined in a CAPINTEC CRC 120 activimeter. Cell viability is controlled by the Trypan blue exclusion test.
(§2) The results obtained, namely the labeling yield (Yield) and the percentages of activity in the separated fractions are given in tables 3 to 5.

whole blood = assay: Cell separation on whole blood (Polymorphprep gradient), activity in separated fractions; type: cell-based, human; design: tested at 2 mCi (74 MBq) in 3 mL blood; details: for Cell separation on whole blood (activity %): Polymorphprep: fraction: Polymorphprep gradient; for Cell separation on whole blood (activity %): Erythrocytes: fraction: erythrocytes; for Cell separation on whole blood (activity %): Leukocytes: fraction: leukocytes; for Cell separation on whole blood (activity %): Medium: fraction: medium
Experimental: as §1, §2
In a first experiment, a separation of the blood constituents is made on a double density Polymorphprep® gradient.
Whole blood from healthy volunteers is labeled with 2 mCi of [^99mTc(ArCS3)2(ArCS2)] following the method described above. The blood constituents are then separated by the Polymorphprep® double density gradient into two separate fractions: lymphocytes and polymorphs/erythrocytes. The whole blood, diluted in 2-3 mL RPMI, is initially delicately placed on the Polymorphprep® gradient and then centrifuged (300 g, 20 min, 37° C.). […] Counting is made on each fraction using a MAXM Y07 00 367 counter in order to confirm cell constitution.

leukocytes = details: in the presence of blood cells (erythrocytes, leukocytes, platelets); documents [3], [4], [6]; cited from earlier work

## Cc1ccc(C(=S)S[S][99Tc]([S]SC(=S)c2ccc(C)cc2)[S]C(=S)c2ccc(C)cc2)cc1 [Example 5, [^99mTc(4-MePhCS3)2(4-MePhCS2)]]
Human blood
  Yield (±3%) of cell labeling: 98%
Whole blood
  Cell separation on whole blood (activity %): Polymorphprep: 3%
  Cell separation on whole blood (activity %): Erythrocytes: 17%
  Cell separation on whole blood (activity %): Leukocytes: 80%
  Cell separation on whole blood (activity %): Medium: 0%

## CCOc1ccc(C(=S)S[S][99Tc]([S]SC(=S)c2ccc(OCC)cc2)[S]C(=S)c2ccc(OCC)cc2)cc1 [Example 14, [^99mTc(4-EtOPhCS3)2(4-EtOPhCS2)]]
Human blood
  Yield (±3%) of cell labeling: 97%
Whole blood
  Cell separation on whole blood (activity %): Polymorphprep: 3%
  Cell separation on whole blood (activity %): Erythrocytes: 22%
  Cell separation on whole blood (activity %): Leukocytes: 75%

## [^99mTc(2-Me-naphCS3)2(2-Me-naphCS2)] [Example 26]
Human blood
  Yield (±3%) of cell labeling: 85%
Whole blood
  Cell separation on whole blood (activity %): Polymorphprep: 2%
  Cell separation on whole blood (activity %): Erythrocytes: 15%
  Cell separation on whole blood (activity %): Leukocytes: 79%
  Cell separation on whole blood (activity %): Medium: 4%

## [^99mTCN(CH3)(CH2)8CS2)2]
leukocytes
  blood cell selectivity of labeling: selectivity for lymphocytes

## CCc1ccccc1C(=S)S[S][99Tc]([S]SC(=S)c1ccccc1CC)[S]C(=S)c1ccccc1CC [Example 9, [^99mTc(2-EtPhCS3)2(2-EtPhCS2)]]
Human blood
  Yield (±3%) of cell labeling: 72%
Whole blood
  Cell separation on whole blood (activity %): Polymorphprep: 2%
  Cell separation on whole blood (activity %): Erythrocytes: 24%
  Cell separation on whole blood (activity %): Leukocytes: 72%
  Cell separation on whole blood (activity %): Medium: 2%

## CCCCc1ccc(C(=S)S[S][99Tc]([S]SC(=S)c2ccc(CCCC)cc2)[S]C(=S)c2ccc(CCCC)cc2)cc1 [Example 11, [^99mTc(4-nBuPhCS3)2(4-nBuPhCS2)]]
Human blood
  Yield (±3%) of cell labeling: 97%
Whole blood
  Cell separation on whole blood (activity %): Polymorphprep: 1%
  Cell separation on whole blood (activity %): Erythrocytes: 53%
  Cell separation on whole blood (activity %): Leukocytes: 46%

## CCON(CC)C(=S)[S][99Tc](#[N])[S]C(=S)N(CC)OCC [[^99mTcN(NOET)2], nitrurobis(N-ethoxy-N-ethyldithiocarbamato)technetium-99m]
leukocytes
  blood cell selectivity of labeling: leukocyte labeling, of granulocytes in particular

## CCc1ccc(C(=S)S[S][99Tc]([S]SC(=S)c2ccc(CC)cc2)[S]C(=S)c2ccc(CC)cc2)cc1 [Example 8, [^99mTc(4-EtPhCS3)2(4-EtPhCS2)]]
Human blood
  Yield (±3%) of cell labeling: 99%
Whole blood
  Cell separation on whole blood (activity %): Erythrocytes: 14%
  Cell separation on whole blood (activity %): Leukocytes: 85%
  Cell separation on whole blood (activity %): Medium: 1%

## CCCCc1ccc(C(=S)S[S][99Tc]([S]SC(=S)c2ccc(CCCC)cc2)[S]C(=S)c2ccc(CCCC)cc2)cc1 [Example 12, [^99mTc(4-nBuPhCS3)2(4-nBuPhCS2)]]
Human blood
  Yield (±3%) of cell labeling: 100%
Whole blood
  Cell separation on whole blood (activity %): Polymorphprep: 4%
  Cell separation on whole blood (activity %): Erythrocytes: 29%
  Cell separation on whole blood (activity %): Leukocytes: 66%
  Cell separation on whole blood (activity %): Medium: 1%

## [^99mTc(2-Me-naphCS3)2(2-Me-naphCS2)] [Example 25]
Human blood
  Yield (±3%) of cell labeling: 96%
Whole blood
  Cell separation on whole blood (activity %): Polymorphprep: 4%
  Cell separation on whole blood (activity %): Erythrocytes: 10%
  Cell separation on whole blood (activity %): Leukocytes: 85%
  Cell separation on whole blood (activity %): Medium: 1%
